Measurements: patent publication US6441029B1, “Method of suppressing tumor growth with combinations of isoprenoids and statins” (Wisconsin Alumni Research Foundation, priority 1997, dated 2002)
Values joined by “and” are separate entries in the source; they are usually repeats but may differ in a detail not shown here. Equal entries are not always repeated. Where two headings read alike, the source gives them in different places. Marks after values point to notes of the source that are not given here.

What was measured:
[1] = tested on: murine melanoma B16/F10 cells; assay: In vitro growth assays of lovastatin, β-ionone and γ-tocotrienol alone and combined (Table 5); format: cell-based
[2] = cited from earlier work
[3] = tested on: implanted murine melanoma B16F10 tumors; conditions: cited from earlier work
[4] = up to 80 mg/d, five-year follow-up of 745 patients (14 observed, 21 predicted); cited from earlier work
implanted 216 melanomas = conditions: massive intake, 733 μmol/d; Meadows, et al., 1991; cited from earlier work
[5] = tested on: Murine B16(F10) melanoma cells; conditions: L. He, et al., J. Nutr. 1997; read-out: IC50, proliferation of murine melanoma B16/F10 cells; cited from earlier work
B16 melanoma cells = assay: Paired isoprenoids, 48 hour cell count (FIG. 2A, 2B); format: cell-based, Murine
Procedure: (§1) Cultures, seeded with 1-1.5×10^5 cells, were incubated for 24 hours at 37° C. in a humidified atmosphere of 5% CO2. Isoprenoids, dissolved in absolute ethanol, were added at 24 hours (0 time); all cultures contained 5 mL ethanol/L ([…]). The cultures were incubated for an additional 48 hours. The media was removed and the monolayers were washed twice with Hanks' Balanced Salt Solution (Sigma) and then incubated with a trypsin-EDTA solution (Sigma) at 37° C. for 2 minutes. Trypsin was inactivated by suspending the cells in medium containing 10% fetal bovine serum (Sigma). The cells were pelleted at 250×g and resuspended in Hanks' Balanced Salt Solution. Viable cells, cells that excluded 0.4% trypan blue (GIPCOBRL), were counted with a hemocytometer; 24 hour cell counts were deducted from final cell counts to provide an estimate of the net increase in cell number.
We next determined that the effects of the isoprenoids on the growth of B16 melanoma cells in culture are additive, and in some cases, synergistic. FIG. 2A illustrates the additive effects of γ-tocotrienol and β-ionone on B16 melanoma cell populations. Values are means±SD, n=28; pooled SEM=36 (×10^4). Cell counts calculated to show the decreased population relative to the control are listed on the insert table.
FIG. 2B illustrates the additive effects of carvacrol and β-ionone on B16 melanoma cell populations. Values are means±SD, n=28; pooled SEM=62 (×10^4). Cell counts calculated to show the decreased population relative to the control are listed in the inset table. ^a-hMeans not sharing a superscript (a>b>c>d>e>f>g>h) are different (P<0.001). Referring to FIG. 2, B16 melanoma cells were incubated with β-ionone and d-γ-tocotrienol in one test (FIG. 2A). d-γ-Tocotrienol (7.5 μmol/L) and β-ionone (50 μmol/L) reduced the 48 hour cell count by 19% and 10% respectively (FIG. 2A). The 34% reduction in cell number achieved with the paired isoprenoids exceeded the 29% reduction predicted by the sum of the individual effects (FIG. 2A, inset). At higher concentrations d-γ-tocotrienol (15 μmol/L) and β-ionone (100 μmol/L) reduced the 48 hour cell count by 34% and […] respectively; the additive effect, a 68% reduction in cell number, was also greater than the sum of the individual effects (59%) (FIG. 2A, inset).
Carvacrol (50 μmol/L) and β-ionone (75 μmol/L) reduced the 48 hour cell count by 25% and 31% respectively; the additive effect, a 48% reduction in cell number, was less than the 56% reduction predicted by the sum of the individual effects. Carvacrol (100 μmol/L) and β-ionone (150 μmol/L) reduced the cell count by 35% and 65% respectively; the additive effect, an 84% reduction in cell number, again was less than the 100% reduction predicted by the sum the individual effects (FIG. 2B, inset). The reduction in cell number predicted by the sum of the individual effects of the isoprenoids was highly correlated with that achieved with the paired isoprenoids (r=0.91, n=8, P<0.01).

[6] = tested on: Murine B16(F10) melanoma cells; assay: IC50 determinations: net increase in 48 hour melanoma cell count; format: cell-based; conditions: read-out: IC50: concentration required to suppress the increase in the population of melanoma cells by 50% during a 48 hour incubation; 48 hour incubation; means ± SD
Procedure: as §1
FIG. 1 is a representative evaluation of the dose-dependent impact of five different tocols on the proliferation of melanoma B16 cells. Cultures (3 mL) seeded with 1-1.5×10^5 cells were incubated for 24 hours prior to the introduction of the tocols. Viable cells were counted at 48 hours following the addition of the tocols. The cell count at 24 hours (0 time) is shown by the dashed line. The intersection of the solid horizontal line and the line plotted for each tocol indicates the concentration at which the tocol suppressed by 50% the increase in cell number during the incubation (IC50 value). IC50 values (mean, SD and n) for all isoprenoids tested are listed on Table 1. […] The growth-suppressive potency of the individual tocotrienols was inverse to the number of methyl groups on the 6-chromanol ring: d-α-tocotrienol (methyl groups at carbons 5, 7, 8 and 2)<<d-γ-tocotrienol (methyl groups at carbons 7, 8 and 2)<d-δ-tocotrienol (methyl groups at carbons 8 and 2)<<d-2-desmethyl tocotrienol (no methyl groups) (Table 1).

B16(F10) melanoma = conditions: for retardation in tumor growth: 10 days prior to and 28 days following implantation, P<0.05
Procedure: The first examined the impact of a diet-relevant intake of d-γ-tocotrienol on the growth of B16(F10) melanomas in host mice. […] We first prepared a basal diet mix, patterned after the AIN-76A formulation (American Institute of Nutrition, 1977) but free of corn oil and dl-α-tocopherol. These ingredients and Vitamin E-stripped corn oil were purchased from Teklad Test Diets, Madison, Wis. Stock solutions of dl-α-tocopherol (80 μmol/g) and d-γ-tocotrienol (80 μmol/g) were prepared with vitamin E-stripped corn oil. Stock solutions of the tocols, diluted with vitamin E-stripped corn oil, were mixed with the basal diet to provide finished diets containing 5% corn oil and specified tocol concentrations. Where noted, β-ionone was added to the oil. The diets, mixed weekly, were stored under refrigeration. Food cups were cleaned and refilled daily.
Experiment 1: Weanling C57BL female mice (Harlan-Sprague Dawley, Madison, Wis.) were housed in groups of four on wood shavings in plastic cages and maintained at 25° C. with a 12 hour light-dark cycle. The four groups of mice (20/group) were fed experimental diets for 10 days prior to and for 28 days following the implantation of B16 melanoma cells. The split plot design consisted of four treatments comprised of two tocols, dl-α-tocopherol and d-γ-tocotrienol, each presented at two levels, 116 and 924 μmol/kg diet. This design permitted two comparisons of diets equal in tocol content and one comparison of diets about equal in d-α-tocopherol equivalents. […] We then corrected for the biological activity of the dl-α-tocopherol mixture (70% of the activity of d-α-tocopherol) in arriving at the 8:1 tocotrienol/tocopherol ratio used in formulating the experimental diets. Melanoma cells, cultured and harvested as previously, described (Shoff, et al., 1991), were washed twice with RPMI 1640 containing 10% Fetal Bovine Sera (GIBCOBRL). The pelleted cells were suspended in RPMI 1640 and counted (98% viable) after a 1:20 dilution in 0.4% trypan blue. The cells were further diluted in RPMI 1640 (1×10^8 cells/L) and 0.1 mL of the suspension (1×10^4 cells) was injected subcutaneously into the flank of each mouse. […] The mice were killed by CO2 overdose and the tumors were excised and weighed.
Statistical Methods: StatView and SuperANOVA software (Abacus Concepts, Berkeley, Calif.) were used for the assessment of treatment-mediated effects. Treatment-mediated differences in body and tumor weights, days to tumor appearance and days to morbidity were identified with split plot analysis of variance and pairwise t-tests of least squares means. Treatment-mediated differences in days to morbidity were also assessed using parametric (paired t-test) and nonparametric (Wilcoxon signed rank) tests (Haycock, et al., 1992).
The first dietary study evaluated the impact of d-γ-tocotrienol and dl-α-tocopherol on days to detection of a solid tumor and growth of implanted B16 melanomas.

[7] = tested on: established implanted B16 melanoma; assay: Experiment 2: isoprenoid-enriched diets, survival of mice bearing established melanomas; format: in vivo, C57BL female mice; conditions: for Days survival, Mean / Days survival, Median: n = 12
Procedure: Where noted, β-ionone was added to the oil. The diets, mixed weekly, were stored under refrigeration. Food cups were cleaned and refilled daily.
Experiment 2: Weanling female C57BL female mice (n=60, Harlan Sprague-Dawley) were acclimated to the housing conditions and AIN-76A diet (116 μmol dl-α-tocopherol/kg diet) as described above. Tumors were implanted and the mice continued to receive the AIN-76A diet. Beginning on day 8 post-implant the mice were palpated daily for the presence of a tumor. Tumors were first detected on day 14. Random numbers were generated for assigning each mouse in a sequential subset of five to a diet. Experimental treatments provided 2 and 4 mmol d-γ-tocotrienol/kg diet. We additionally tested the impact of β-ionone (2 mmol β-ionone/kg AIN-76A diet) and that of a blend of the two isoprenoids (2 mmol each/kg diet) on the survival of the mice.
We then asked if either dietary d-γ-tocotrienol or β-ionone would prolong the survival of mice bearing implanted melanomas. Dietary treatments were initiated following the detection of solid tumors. We also asked whether these structurally diverse isoprenoids would have an additive effect on survival. The experimental groups were constructed by random assignment of each member of successive subsets of 5 mice to one of the experimental diets. […] Treatments increased median duration of survival by 42±4.5% and the mean duration of survival by 30% (P<0.005); differences between duration of survival means of the experimental groups were not significant (Table 3, FIG. 3). FIG. 3 is a survival curve for host mice receiving isoprenoid-enriched diets following the detection of a solid implanted B16 melanoma. Mean survival durations are presented on Table 4. β-ionone and γ-tocotrienol^1 treatments provided 2 mmol of the isoprenoid/kg diet; the blend provided 2 mmol of each isoprenoid/kg diet; and γ-tocotrienol^2 provided 4 mmol γ-tocotrienol/kg diet.

For `CC[C@H](C)C(=O)O[C@H]1C[C@@H](C)C=C2C=C[C@H](C)[C@H](CC[C@@H]3C[C@@H](O)CC(=O)O3)[C@H]21` [Lovastatin, [1S[1a(R),3α,7β,8β(2S,4S),8aβ]]-1,2,3,7,8,8a-hexahydro-3,7-dimethyl-8-[2-(tetrahydro-4-hydroxy-6-oxo-2H-pyran-2-yl)ethyl]-1-maphthalenyl-2-methylbutanoate, reference compound], the Growth ([1]; 1.5 μmol/L) was 71 % of Control, the “decrease in cell growth” value ([1]; 2 μM) was 50% and the Growth ([1]; 2 μmol/L) was 50 % of Control and 60 % of Control. The Growth ([1]; 2 μmol/L, listed as lovastatin) was 50 % of Control, the Growth ([1]; 3 μmol/L) was 53 % of Control and the “growth rate relative to controls” value ([1]; 1.9±0.3 μmol/l, protocol of He, et al.) was 61.4±4.6 % the rate of controls. The “dose level at which the incidence and severity of toxicity increased markedly” value ([2]; Phase I, 7-day courses given monthly, doses 2 to 45 mg/kg) was 25 mg/kg, the “total episodes of toxicity” value ([2]; sixty of 88 patients) was 128 episodes and the “growth of implanted murine melanoma B16F10 tumors” value ([3]; 50 mg/kg administered ip on alternate days) was “suppressed”. For the same compound, the “reduction in cancer incidence” value [4] was 33%.

For `O=C1O[C@H]([C@@H](O)CO)C(O)=C1O` [ascorbic acid], the “growth of implanted melanomas” value (implanted 216 melanomas) is given as “suppressed”.

For `CC(C)=CCCC(C)=CCCC(C)=CCCC1(C)CCc2cc(O)c(C)c(C)c2O1` (stereo not drawn) [d-γ-Tocotrienol, 2,7,8-trimethyl-2-(4,8,12-trimethyltrideca-3,7,11-trienyl)-chroman-6-ol], the IC50 [5] is given as 20 µM, the “reduction of 48 hour cell count” value (B16 melanoma cells; 7.5 μmol/L) is given as 19% and the “reduction of 48 hour cell count” value (B16 melanoma cells; 15 μmol/L) is given as 34%. The Growth ([1]; 5 μmol/L) was 90 % of Control, the Growth ([1]; 7.5 μmol/L) was 81 % of Control and the Growth ([1]; 10 μmol/L) was 85 % of Control and 72 % of Control. The Growth ([1]; 15 μmol/L) was 66 % of Control and 77 % of Control, the Growth ([1]; 20 μmol/L) was 65 % of Control and the IC50 [6] was 20 µM. For the same compound, the “growth of implanted murine melanoma B16F10 tumors” value ([3]; 116-2000 μmol/kg diet) was “suppressed”, the “retardation in tumor growth” value (B16(F10) melanoma; 116 μmol/kg diet, isomolar substitution for dl-α-tocopherol in AIN-76A diet) was 36% and the “retardation in tumor growth” value (B16(F10) melanoma; 928 μmol/kg diet, Vitamin E-equivalent substitution for dl-α-tocopherol in AIN-76A diet) was 50%. The “days post-implant to tumor detection” value (B16(F10) melanoma; 928 μmol/kg diet, least mean squares analysis) was “differed significantly from the effects of the other treatments”, the “28 day tumor weight, least mean squares analyses” value (B16(F10) melanoma; 116 and 928 μmol/kg diet) was “tumor growth-suppressive action” and the “growth of the B16 melanoma implanted in the flank of host mice” value (B16(F10) melanoma; diet providing an intake of 0.4 μmol/d (diet-relevant intake)) was “suppressed”. For the same compound, the “suppression of tumor growth” value (B16(F10) melanoma; diet providing only the d-α-tocopherol-equivalent of the AIN-76A diet) was “highly significant suppression”, the “further change in duration of survival on doubling the intake” value ([7]; 14 μmol/d versus 7 μmol/d, P=0.95) was -0.21 days and the “Days survival, Mean” value ([7]; 2 mmol/kg diet) was 18.67^a Days. For the same compound, the “Days survival, Median” value ([7]; 2 mmol/kg diet) was 20.0 days, the “Days survival, Mean” value ([7]; 4 mmol/kg diet) was 18.46^a Days and the “Days survival, Median” value ([7]; 4 mmol/kg diet) was 22.0 days. For the same compound, the “growth of established B16 melanomas” value ([7]; diet providing 7 μmol/d) was “suppressed”, the “increase in duration of survival” value ([7]; diet providing an intake of 7 μmol/d) was 35% and the “duration of host survival” value ([7]; experimental diets versus control, P<0.03) was “significantly increased”.
